Data reported in US7902170B2, “Influenza virus binding, sialylated oligosaccharide substance and use thereof” (priority 2000, dated 2011).
Entries after “also recorded” stand apart in the source; their conditions may differ.

What follows are substances tested on human influenza A virus X-113 reassortant vaccine strain (hemagglutinin and neuraminidase of A/Texas/36/91, H1N1).
Assay type: binding

Substance	Binding of human influenza virus HRP conjugate to glycolipid on TLC plate
NeuAcα3Galβ4(Fucα3)GlcNAcβ-	excluded; also recorded: no binding
NeuAcα3Galβ4GlcNAcβ3Galβ4(Fucα3)GlcNAcβ- [VIM-2]	excluded; also recorded: no binding
NeuAcα3Galβ4GlcβCer [GM3]	did not see binding
NeuAcα6Galβ4GlcNAcβ3Galβ4GlcNAcβ3Galβ4GlcβCer [7-sugar NeuAc-6-neolacto ganglioside]	did not show binding; also recorded: no binding at all
NeuAcα6Galβ4GlcNAcβ3Galβ4GlcβCer [S-6-PG]	did not show binding; also recorded: no binding at all
sulfatide	probably unspecific interaction
